Source: patent publication US20020119438A1, “METHOD FOR D[…] CELL COUNT” (priority 1995, published 2002)
In brackets after ≈: the same amount, converted by molar mass.

Experiments:
[1] = system: MOLT-4 cells; experiment: Cytotoxicity assessment by method of the present invention (PO-PRO-1 Iodide fluorescence before/after Triton X-100); type: cell-based, human; conditions: two days incubation, from viable cell numbers
[2] = system: MOLT-4 cells; experiment: Cytotoxicity assessment by MTT assay system; type: cell-based, human; conditions: two days incubation

**Q.** What does the source list for `CO[C@@]12[C@H](COC(N)=O)C3=C(C(=O)C(C)=C(N)C3=O)N1C[C@@H]1N[C@@H]12` [Mitomycin C]?
**A.** IC50 [1]: 2.2 µg/mL (≈ 6.58 µM); IC50 [2]: 5.5 µg/mL (≈ 16.5 µM)
